# In US20240398793A1, “Methods of Treating Lymphedema” (Celltaxis, LLC, priority 2021, published 2024):
# What was measured:
# [1] = system: patients with cystic fibrosis; assay: Phase 2 study in adult CF patients, 48 weeks, efficacy; format: in vivo, human; conditions: for rate of pulmonary exacerbations: 48 weeks of treatment
# [2] = Long-term animal safety studies; format: in vivo, animals
# [3] = Most common treatment emergent adverse events, safety population
smiles,measurement,setting,value
"O=C(O)c1ccc(CN2C[C@@H]3C[C@H]2CN3Cc2ccc(Oc3ccc(-c4ncco4)cc3)cc2)cc1 [Acebilustat, 4-{[(1S,4S)-5-({4-[4-oxazol-2-yl-phenoxy]phenyl}methyl)-2,5-diazabicyclo[2.2.1]heptan-2-yl]methyl}benzoic acid]",change from baseline in percent predicted FEV1 versus placebo,"[1]; 48-week Phase 2 CF study, primary endpoint",no statistically significant difference
same,time to first pulmonary exacerbation,"[1]; CF patients, 48 weeks, secondary efficacy analysis",concordant numerical benefit
same,risk of infection,"[1]; adult CF patients, 48 weeks",no evidence of increased risk of infection
same,rate of pulmonary exacerbations,[1]; adult CF patients,concordant numerical benefit
same,rate of pulmonary exacerbations,"[1]; adult CF patients, listed as acebilustat",showed promise in reducing the rate of pulmonary exacerbations
same,ophthalmologic changes,[2]; long term safety studies,no evidence for ophthalmologic changes
same,dose limiting toxicity,[2]; long-term animal safety studies across species,failure to gain weight associated with reduced food consumption
same,"Abdominal pain TEAE, %",[3]; 50 mg (N = 67),(4.5%)
same,"Abdominal pain upper TEAE, %",[3]; 50 mg (N = 67),(10.4%)
same,"Arthralgia TEAE, %",[3]; 50 mg (N = 67),(4.5%)
same,"Back pain TEAE, %",[3]; 50 mg (N = 67),(6.0%)
same,"Chest discomfort TEAE, %",[3]; 50 mg (N = 67),(4.5%)
same,"Constipation TEAE, %",[3]; 50 mg (N = 67),(6.0%)
same,"Cough TEAE, %",[3]; 50 mg (N = 67),(40.3%)
same,"Diarrhoea TEAE, %",[3]; 50 mg (N = 67),(13.4%)
same,"Distal intestinal obstruction syndrome TEAE, %",[3]; 50 mg (N = 67),(6.0%)
same,"Dyspnoea TEAE, %",[3]; 50 mg (N = 67),(9.0%)
same,"Epistaxis TEAE, %",[3]; 50 mg (N = 67),(6.0%)
same,"Fatigue TEAE, %",[3]; 50 mg (N = 67),(13.4%)
same,"Forced expiratory volume decreased TEAE, %",[3]; 50 mg (N = 67),(6.0%)
same,"Gastroenteritis TEAE, %",[3]; 50 mg (N = 67),(1.5%)
same,"Gastrointestinal disorders TEAE, %",[3]; 50 mg (N = 67),(40.3%)
same,"General disorders and administration site conditions TEAE, %",[3]; 50 mg (N = 67),(35.8%)
same,"Haemoptysis TEAE, %",[3]; 50 mg (N = 67),(25.4%)
same,"Headache TEAE, %",[3]; 50 mg (N = 67),(23.9%)
same,"Infections and infestations TEAE, %",[3]; 50 mg (N = 67),(88.1%)
same,"Influenza TEAE, %",[3]; 50 mg (N = 67),(4.5%)
same,"Investigations TEAE, %",[3]; 50 mg (N = 67),(29.9%)
same,"Musculoskeletal and connective tissue disorders TEAE, %",[3]; 50 mg (N = 67),(19.4%)
same,"Nasopharyngitis TEAE, %",[3]; 50 mg (N = 67),(16.4%)
same,"Nausea TEAE, %",[3]; 50 mg (N = 67),(7.5%)
same,"Nervous system disorders TEAE, %",[3]; 50 mg (N = 67),(32.8%)
same,"No. of subjects with at least one TEAE, %",[3]; 50 mg (N = 67),(100.0%)
same,"Oropharyngeal pain TEAE, %",[3]; 50 mg (N = 67),(10.4%)
same,"Paranasal sinus hypersecretion TEAE, %",[3]; 50 mg (N = 67),(7.5%)
same,"Pyrexia TEAE, %",[3]; 50 mg (N = 67),(9.0%)
same,"Rales TEAE, %",[3]; 50 mg (N = 67),(1.5%)
same,"Rash TEAE, %",[3]; 50 mg (N = 67),(4.5%)
same,"Respiratory, thoracic and mediastinal disorders TEAE, %",[3]; 50 mg (N = 67),(70.1%)
same,"Rhinitis TEAE, %",[3]; 50 mg (N = 67),(6.0%)
same,"Rhinorrhoea TEAE, %",[3]; 50 mg (N = 67),(9.0%)
same,"Sinusitis TEAE, %",[3]; 50 mg (N = 67),(4.5%)
same,"Skin and subcutaneous tissue disorders TEAE, %",[3]; 50 mg (N = 67),(11.9%)
same,"Sputum abnormal TEAE, %",[3]; 50 mg (N = 67),(6.0%)
same,"Sputum increased TEAE, %",[3]; 50 mg (N = 67),(19.4%)
same,"Abdominal pain TEAE, %",[3]; 100 mg (N = 66),(6.1%)
same,"Abdominal pain upper TEAE, %",[3]; 100 mg (N = 66),(4.5%)
same,"Alanine aminotransferase increased TEAE, %",[3]; 100 mg (N = 66),(6.1%)
same,"Arthralgia TEAE, %",[3]; 100 mg (N = 66),(7.6%)
same,"Back pain TEAE, %",[3]; 100 mg (N = 66),(1.5%)
same,"Chest discomfort TEAE, %",[3]; 100 mg (N = 66),(12.1%)
same,"Constipation TEAE, %",[3]; 100 mg (N = 66),(1.5%)
same,"Cough TEAE, %",[3]; 100 mg (N = 66),(43.9%)
same,"Diarrhoea TEAE, %",[3]; 100 mg (N = 66),(7.6%)
same,"Distal intestinal obstruction syndrome TEAE, %",[3]; 100 mg (N = 66),(3.0%)
same,"Dyspnoea TEAE, %",[3]; 100 mg (N = 66),(7.6%)
same,"Epistaxis TEAE, %",[3]; 100 mg (N = 66),(4.5%)
same,"Fatigue TEAE, %",[3]; 100 mg (N = 66),(13.6%)
same,"Forced expiratory volume decreased TEAE, %",[3]; 100 mg (N = 66),(7.6%)
same,"Gastroenteritis TEAE, %",[3]; 100 mg (N = 66),(6.1%)
same,"Gastrointestinal disorders TEAE, %",[3]; 100 mg (N = 66),(30.3%)
same,"General disorders and administration site conditions TEAE, %",[3]; 100 mg (N = 66),(36.4%)
same,"Haemoptysis TEAE, %",[3]; 100 mg (N = 66),(18.2%)
same,"Headache TEAE, %",[3]; 100 mg (N = 66),(13.6%)
same,"Infections and infestations TEAE, %",[3]; 100 mg (N = 66),(90.9%)
same,"Influenza TEAE, %",[3]; 100 mg (N = 66),(7.6%)
same,"Investigations TEAE, %",[3]; 100 mg (N = 66),(34.8%)
same,"Musculoskeletal and connective tissue disorders TEAE, %",[3]; 100 mg (N = 66),(16.7%)
same,"Nasopharyngitis TEAE, %",[3]; 100 mg (N = 66),(21.2%)
same,"Nausea TEAE, %",[3]; 100 mg (N = 66),(12.1%)
same,"Nervous system disorders TEAE, %",[3]; 100 mg (N = 66),(22.7%)
same,"No. of subjects with at least one TEAE, %",[3]; 100 mg (N = 66),(100.0%)
same,"Oropharyngeal pain TEAE, %",[3]; 100 mg (N = 66),(13.6%)
same,"Pyrexia TEAE, %",[3]; 100 mg (N = 66),(12.1%)
same,"Rales TEAE, %",[3]; 100 mg (N = 66),(6.1%)
same,"Rash TEAE, %",[3]; 100 mg (N = 66),(9.1%)
same,"Respiratory, thoracic and mediastinal disorders TEAE, %",[3]; 100 mg (N = 66),(75.8%)
same,"Rhinitis TEAE, %",[3]; 100 mg (N = 66),(4.5%)
same,"Rhinorrhoea TEAE, %",[3]; 100 mg (N = 66),(7.6%)
same,"Sinusitis TEAE, %",[3]; 100 mg (N = 66),(10.6%)
same,"Skin and subcutaneous tissue disorders TEAE, %",[3]; 100 mg (N = 66),(24.2%)
same,"Sputum increased TEAE, %",[3]; 100 mg (N = 66),(10.6%)
